# Results taken from article PMC6582486, “Stapled EGFR peptide reduces inflammatory breast cancer and inhibits additional HER-driven models of cancer” (Journal of Translational Medicine, 2019).
# Where a SMILES comes first, the peptide text is derived from it. Bridges are numbered along the chain shown (N, C = ends). [ ]: non-standard residue; d: D form. R8 = C=CCCCCCC[C@@](C)(N)C(=O)O; S5 = C=CCCC[C@](C)(N)C(=O)O
# Tests used:
# [1] = Plasma concentration after tail-vein injection (toxicokinetics); format: in vivo, CD-1 mice; conditions: male;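 also: BQL means below the quantifiable limit of 0.5 µg/mL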
# Experimental: (§1) Toxicology was performed by IITRI. The study was conducted in compliance with the US Food and Drug Administration (FDA) good laboratory practice (GLP) Regulations (Code of Federal Regulations Title 21 Part 58) to evaluate the toxicokinetics, local tolerability, immunogenicity, and potential toxicity of SAH5-EJ1 following three times per week intravenous (IV) dosing for 28 days in mice. Male and female CD-1 IGS [Crl:CD1(ICR)] mice (135 per sex) were received from Wilmington, MA-based Charles River Laboratories, Inc.’s Kingston facility (Stone Ridge, NY).
# [2] = 28-day toxicity study: treatment observation frequency; format: in vivo, CD-1 mice; conditions: for Treatment observation: Animals with Signs: 28 days
# Experimental: as §1
compound,measurement,setting,value
CC[C@H](C)[C@H](NC(=O)[C@H](Cc1c[nH]cn1)NC(=O)[C@H](CCCNC(=N)N)NC(=O)[C@H](CCCNC(=N)N)NC(=O)[C@H](CCCNC(=N)N)NC(=O)[C@H](CCSC)NC(=O)[C@H](Cc1ccccc1)NC(=O)[C@H](C)NC(=O)[C@H](CCCNC(=N)N)NC(=O)[C@H](C)NC(=O)[C@H](CCC(N)=O)NC(=O)[C@H](CCCNC(=N)N)NC(=O)[C@H](C)NC(=O)[C@H](C)NC(=O)[C@H](C)NC(=O)[C@H](CCCNC(=N)N)NC(=O)[C@H](C)NC(=O)[C@@H](N)Cc1ccc(O)cc1)C(=O)N[C@H](C(=O)N[C@@H](CCCNC(=N)N)C(=O)N[C@@H](CCCCN)C(=O)N[C@@H](CCCNC(=N)N)C(=O)N[C@]1(C)CCCCCCC=CCCC[C@@](C)(C(=O)N[C@@H](CCCNC(=N)N)C(=O)N[C@@H](CCC(=O)O)C(N)=O)NC(=O)[C@H](CCC(N)=O)NC(=O)[C@H](CC(C)C)NC(=O)[C@H](CC(C)C)NC(=O)[C@H](CCCNC(=N)N)NC(=O)[C@H](CCCNC(=N)N)NC(=O)[C@H](CC(C)C)NC1=O)C(C)C [SAH5-EJ1] (H-YARAAARQARAFMRRRHIVRKR[R8]LRRLLQ[S5]RE-NH2; staple 23-30),SAH-EJ1 concentration in plasma,"[1]; 5 mg/kg IV, day 1, 8 h, mouse 1 of 3",BQL (BQL represents below quantifiable limits (0.5 µg/mL))
same,SAH-EJ1 concentration in plasma,"[1]; 5 mg/kg IV, day 1, 8 h, mouse 2 of 3",BQL (BQL represents below quantifiable limits (0.5 µg/mL))
same,SAH-EJ1 concentration in plasma,"[1]; 5 mg/kg IV, day 1, 8 h, mouse 3 of 3",BQL (BQL represents below quantifiable limits (0.5 µg/mL))
same,SAH-EJ1 concentration in plasma,"[1]; 5 mg/kg IV, day 1, 24 h, mouse 1 of 3",BQL (BQL represents below quantifiable limits (0.5 µg/mL))
same,SAH-EJ1 concentration in plasma,"[1]; 5 mg/kg IV, day 1, 24 h, mouse 2 of 3",BQL (BQL represents below quantifiable limits (0.5 µg/mL))
same,SAH-EJ1 concentration in plasma,"[1]; 5 mg/kg IV, day 1, 24 h, mouse 3 of 3",BQL (BQL represents below quantifiable limits (0.5 µg/mL))
same,SAH-EJ1 concentration in plasma,"[1]; 10 mg/kg IV, day 1, 2 h, mouse 1 of 3",BQL (BQL represents below quantifiable limits (0.5 µg/mL))
same,SAH-EJ1 concentration in plasma,"[1]; 10 mg/kg IV, day 1, 2 h, mouse 2 of 3",BQL (BQL represents below quantifiable limits (0.5 µg/mL))
same,SAH-EJ1 concentration in plasma,"[1]; 10 mg/kg IV, day 1, 2 h, mouse 3 of 3",BQL (BQL represents below quantifiable limits (0.5 µg/mL))
same,SAH-EJ1 concentration in plasma,"[1]; 10 mg/kg IV, day 1, 4 h, mouse 1 of 3",BQL (BQL represents below quantifiable limits (0.5 µg/mL))
same,SAH-EJ1 concentration in plasma,"[1]; 10 mg/kg IV, day 1, 4 h, mouse 2 of 3",BQL (BQL represents below quantifiable limits (0.5 µg/mL))
same,SAH-EJ1 concentration in plasma,"[1]; 10 mg/kg IV, day 1, 4 h, mouse 3 of 3",BQL (BQL represents below quantifiable limits (0.5 µg/mL))
same,SAH-EJ1 concentration in plasma,"[1]; 10 mg/kg IV, day 1, 8 h, mouse 1 of 3",BQL (BQL represents below quantifiable limits (0.5 µg/mL))
same,SAH-EJ1 concentration in plasma,"[1]; 10 mg/kg IV, day 1, 8 h, mouse 2 of 3",BQL (BQL represents below quantifiable limits (0.5 µg/mL))
same,SAH-EJ1 concentration in plasma,"[1]; 10 mg/kg IV, day 1, 8 h, mouse 3 of 3",BQL (BQL represents below quantifiable limits (0.5 µg/mL))
same,SAH-EJ1 concentration in plasma,"[1]; 10 mg/kg IV, day 1, 24 h, mouse 1 of 3",BQL (BQL represents below quantifiable limits (0.5 µg/mL))
same,SAH-EJ1 concentration in plasma,"[1]; 10 mg/kg IV, day 1, 24 h, mouse 2 of 3",BQL (BQL represents below quantifiable limits (0.5 µg/mL))
same,SAH-EJ1 concentration in plasma,"[1]; 10 mg/kg IV, day 1, 24 h, mouse 3 of 3",BQL (BQL represents below quantifiable limits (0.5 µg/mL))
same,SAH-EJ1 concentration in plasma,"[1]; 15 mg/kg IV, day 1, 1 h, mouse 1 of 3",BQL (BQL represents below quantifiable limits (0.5 µg/mL))
same,SAH-EJ1 concentration in plasma,"[1]; 15 mg/kg IV, day 1, 2 h, mouse 1 of 3",BQL (BQL represents below quantifiable limits (0.5 µg/mL))
same,SAH-EJ1 concentration in plasma,"[1]; 15 mg/kg IV, day 1, 2 h, mouse 3 of 3",BQL (BQL represents below quantifiable limits (0.5 µg/mL))
same,SAH-EJ1 concentration in plasma,"[1]; 15 mg/kg IV, day 1, 4 h, mouse 1 of 3",BQL (BQL represents below quantifiable limits (0.5 µg/mL))
same,SAH-EJ1 concentration in plasma,"[1]; 15 mg/kg IV, day 1, 4 h, mouse 2 of 3",BQL (BQL represents below quantifiable limits (0.5 µg/mL))
same,SAH-EJ1 concentration in plasma,"[1]; 15 mg/kg IV, day 1, 4 h, mouse 3 of 3",BQL (BQL represents below quantifiable limits (0.5 µg/mL))
same,SAH-EJ1 concentration in plasma,"[1]; 15 mg/kg IV, day 1, 8 h, mouse 1 of 3",BQL (BQL represents below quantifiable limits (0.5 µg/mL))
same,SAH-EJ1 concentration in plasma,"[1]; 15 mg/kg IV, day 1, 8 h, mouse 2 of 3",BQL (BQL represents below quantifiable limits (0.5 µg/mL))
same,SAH-EJ1 concentration in plasma,"[1]; 15 mg/kg IV, day 1, 8 h, mouse 3 of 3",BQL (BQL represents below quantifiable limits (0.5 µg/mL))
same,SAH-EJ1 concentration in plasma,"[1]; 15 mg/kg IV, day 1, 24 h, mouse 1 of 3",BQL (BQL represents below quantifiable limits (0.5 µg/mL))
same,SAH-EJ1 concentration in plasma,"[1]; 15 mg/kg IV, day 1, 24 h, mouse 2 of 3",BQL (BQL represents below quantifiable limits (0.5 µg/mL))
same,SAH-EJ1 concentration in plasma,"[1]; 15 mg/kg IV, day 1, 24 h, mouse 3 of 3",BQL (BQL represents below quantifiable limits (0.5 µg/mL))
same,Treatment observation: Discolored Urine (animals),"[2]; female, 5 mg/kg, 10 examined",0
same,Treatment observation: General (animals),"[2]; female, 5 mg/kg, 10 examined",0
same,Treatment observation: Hunched Posture (animals),"[2]; female, 5 mg/kg, 10 examined",0
same,Treatment observation: Hypoactive (animals),"[2]; female, 5 mg/kg, 10 examined",0
same,Treatment observation: Normal (animals),"[2]; female, 5 mg/kg, 10 examined",10
same,Treatment observation: Animals with Signs,"[2]; female, 5 mg/kg, 10 examined",0
same,Treatment observation: Discolored Urine (animals),"[2]; female, 10 mg/kg, 10 examined",0
same,Treatment observation: General (animals),"[2]; female, 10 mg/kg, 10 examined",0
same,Treatment observation: Hunched Posture (animals),"[2]; female, 10 mg/kg, 10 examined",0
same,Treatment observation: Hypoactive (animals),"[2]; female, 10 mg/kg, 10 examined",0
same,Treatment observation: Normal (animals),"[2]; female, 10 mg/kg, 10 examined",10
same,Treatment observation: Animals with Signs,"[2]; female, 10 mg/kg, 10 examined",0
same,Treatment observation: Discolored Urine (animals),"[2]; female, 15 mg/kg, 15 examined",1
same,Treatment observation: General (animals),"[2]; female, 15 mg/kg, 15 examined",2
same,Treatment observation: Hunched Posture (animals),"[2]; female, 15 mg/kg, 15 examined",1
same,Treatment observation: Hypoactive (animals),"[2]; female, 15 mg/kg, 15 examined",2
same,Treatment observation: Normal (animals),"[2]; female, 15 mg/kg, 15 examined",15
same,Treatment observation: Animals with Signs,"[2]; female, 15 mg/kg, 15 examined",2
same,Treatment observation: Discolored Urine (animals),"[2]; male, 5 mg/kg, 10 examined",0
same,Treatment observation: General (animals),"[2]; male, 5 mg/kg, 10 examined",0
same,Treatment observation: Normal (animals),"[2]; male, 5 mg/kg, 10 examined",10
same,Treatment observation: Rough Coat (animals),"[2]; male, 5 mg/kg, 10 examined",0
same,Treatment observation: Animals with Signs,"[2]; male, 5 mg/kg, 10 examined",0
same,Treatment observation: Discolored Urine (animals),"[2]; male, 10 mg/kg, 10 examined",0
same,Treatment observation: General (animals),"[2]; male, 10 mg/kg, 10 examined",0
same,Treatment observation: Normal (animals),"[2]; male, 10 mg/kg, 10 examined",10
same,Treatment observation: Rough Coat (animals),"[2]; male, 10 mg/kg, 10 examined",0
same,Treatment observation: Animals with Signs,"[2]; male, 10 mg/kg, 10 examined",0
same,Treatment observation: Discolored Urine (animals),"[2]; male, 15 mg/kg, 15 examined",1
same,Treatment observation: General (animals),"[2]; male, 15 mg/kg, 15 examined",2
same,Treatment observation: Normal (animals),"[2]; male, 15 mg/kg, 15 examined",15
same,Treatment observation: Rough Coat (animals),"[2]; male, 15 mg/kg, 15 examined",2
same,Treatment observation: Animals with Signs,"[2]; male, 15 mg/kg, 15 examined",2
